Laboratory results as given in patent US5593985A, “Cephalosporin compounds” (priority 1994, dated 1997).
In brackets after ≈: the same amount, converted by molar mass.

Columns and labels:
Type in all cases: cell-based
[1] = system: Streptococcus pyogenes A 77; assay: MIC, standard strain 2; conditions: A77, S. pyogenes A 77, two-fold dilution, Muller Hinton agar, 10^7 CFU/ml, 37° C., 18 hours, read-out: Minimal Inhibitory Concentration(MIC)
Experimental: (§1) In order to illustrate antibiotic effectiveness of the compounds of the present invention, the minimal inhibitory concentrations (MIC's) of the representative compounds were determined against standard strains and compared with ceftazidime and cefpirome, which were used as control compounds.
(§2) The MIC values were taken by employing a two-fold dilution method: that is, two-fold serial dilutions of each of the test compounds were made from initial concentration of […]; each 1.5 ml of them was dispersed in 13.5 ml of Muller Hinton agar medium to adjust to […]; the standard test strain which had the concentration of 10^7 CFU/ml was inoculated by medium;and these were incubated at 37° C. for 18 hours.
(§3) The test used twenty kinds of standard test strains which induced urinary tract infections, respiratory organ infections, skin soft tissue infections, plasma infections, gastrointestinal infections, central nervous system infections, most of which produce β-lactamase. The standard test strains used are as follows:
2. Streptococcus pyogenes A 77

[2] = system: Staphylococcus aureus 285; assay: MIC, standard strain 5; conditions: Staphylococcus aureus; S. aureus 285; two-fold dilution, Muller Hinton agar, 10^7 CFU/ml, 37° C., 18 hours; read-out: Minimal Inhibitory Concentration(MIC)
Experimental: as §1, §2, §3
5. Staphylococcus aureus 285

[3] = system: Staphylococcus aureus 503; assay: MIC, standard strain 6; conditions: Staphylococcus aureus; S. aureus 503; two-fold dilution, Muller Hinton agar, 10^7 CFU/ml, 37° C., 18 hours; read-out: Minimal Inhibitory Concentration(MIC)
Experimental: as §1, §2, §3
6. Staphylococcus aureus 503

Escherichia coli 0 55 = assay: MIC, standard strain 7; conditions: 055, E. coli 0 55, two-fold dilution, Muller Hinton agar, 10^7 CFU/ml, 37° C., 18 hours, read-out: Minimal Inhibitory Concentration(MIC)
Experimental: as §1, §2
(§4) The test used twenty kinds of standard test strains which induced urinary tract infections, respiratory organ infections, skin soft tissue infections, plasma infections, gastrointestinal infections, central nervous system infections, most of which produce β-lactamase.

Escherichia coli DC 0 = assay: MIC, standard strain 8; conditions: DC0, E. coli DC 0, two-fold dilution, Muller Hinton agar, 10^7 CFU/ml, 37° C., 18 hours, read-out: Minimal Inhibitory Concentration(MIC)
Experimental: as §1, §2, §4

Escherichia coli DC 2 = assay: MIC, standard strain 9; conditions: DC2, E. coli DC 2, two-fold dilution, Muller Hinton agar, 10^7 CFU/ml, 37° C., 18 hours, read-out: Minimal Inhibitory Concentration(MIC)
Experimental: as §1, §2, §4

Escherichia coli TEM = assay: MIC, standard strain 10; conditions: 18 h, read-out: Minimal Inhibitory Concentration(MIC)
Experimental: as §1, §2, §4

Escherichia coli 1507 E = assay: MIC, standard strain 11; conditions: E. coli 1507 E, two-fold dilution, Muller Hinton agar, 10^7 CFU/ml, 37° C., 18 hours, read-out: Minimal Inhibitory Concentration(MIC)
Experimental: as §1, §2, §4

[4] = system: Pseudomonas aeruginosa 1592 E; assay: MIC, standard strain 13; conditions: P. aeruginosa 1592 E, two-fold dilution, Muller Hinton agar, 10^7 CFU/ml, 37° C., 18 hours, read-out: Minimal Inhibitory Concentration(MIC)
Experimental: as §1, §2, §3
13. Pseudomonas aeruginosa 1592 E

[5] = system: Pseudomonas aeruginosa 1771M; assay: MIC, standard strain 15; conditions: 18 h, read-out: Minimal Inhibitory Concentration(MIC)
Experimental: as §1, §2, §3
15. Pseudomonas aeruginosa 1771M

Salmonella typhimurium = assay: MIC, standard strain 16; conditions: Salmonella enterica; S. typhimurium; two-fold dilution, Muller Hinton agar, 10^7 CFU/ml, 37° C., 18 hours; read-out: Minimal Inhibitory Concentration(MIC)
Experimental: as §1, §2, §3
16. Salmonella typhimurium

[6] = system: Klebsiella aerogenes 1552 E; assay: MIC, standard strain 18; conditions: K. aerogenes 1552 E, two-fold dilution, Muller Hinton agar, 10^7 CFU/ml, 37° C., 18 hours, read-out: Minimal Inhibitory Concentration(MIC)
Experimental: as §1, §2, §3
18. Klebsiella aerogenes 1552 E

Enterobactercloacas = assay: MIC, clinically separated strains; conditions: Enterobacter cloacae, 18 h, 20 clinical strains
Experimental: as §2

Enterococcus II = assay: MIC, clinically separated strains; conditions: 18 h
Experimental: as §2

Morganella morganii = assay: MIC, clinically separated strains; conditions: 18 h
Experimental: as §2

Proteus mirabilis = assay: MIC, clinically separated strains; conditions: 18 h
Experimental: as §2

Proteus vulgaris = assay: MIC, clinically separated strains; conditions: 18 h
Experimental: as §2

Pseudomonas II = assay: MIC, clinically separated strains; conditions: 18 h
Experimental: as §2

Pseudomonas I = assay: MIC, clinically separated strains; conditions: 18 h
Experimental: as §2

Pseudomonas aeruginosa = assay: MIC, clinically separated strains; conditions: 18 h
Experimental: as §2

Serratia spp = assay: MIC, clinically separated strains; conditions: 18 h
Experimental: as §2

Streptococcus II = assay: MIC, clinically separated strains; conditions: 18 h
Experimental: as §2

MRSA(Yonsei Univ.) = assay: MIC, clinically separated strains; design: range of MIC: unit not given here
Experimental: as §2

Streptococcus I = assay: MIC, clinically separated strains; design: range of MIC: unit not given here; conditions: 20 clinical strains
Experimental: as §2

[7] = read-out: range of MIC, 20 clinical strains
[8] = read-out: range of MIC, 5 clinical strains
[9] = Staphylococcus aureus, MRSA, 18 h, 17 clinical strains

CO/N=C(\C(=O)N[C@@H]1C(=O)N2C(C(=O)[O-])=C(C[n+]3ccc(C(N)=O)c4c3CCC4)CS[C@H]12)c1csc(N)n1 [Example 3]
MIC [1]: 2 µg/mL (≈ 3.59 µM)
MIC [2]: 781 µg/mL (≈ 1400 µM)
MIC [3]: 391 µg/mL (≈ 701 µM)
MIC (Escherichia coli 0 55): 31 µg/mL (≈ 55.6 µM)
MIC (Escherichia coli DC 0): 25 µg/mL (≈ 44.8 µM)
MIC (Escherichia coli DC 2): 25 µg/mL (≈ 44.8 µM)
MIC (Escherichia coli TEM): 49 µg/mL (≈ 87.9 µM)
MIC (Escherichia coli 1507 E): 25 µg/mL (≈ 44.8 µM)
MIC [4]: 1560 µg/mL (≈ 2800 µM)
MIC [5]: 195 µg/mL (≈ 350 µM)
MIC (Salmonella typhimurium): 25 µg/mL (≈ 44.8 µM)
MIC [6]: 25 µg/mL (≈ 44.8 µM)
MIC (Enterobactercloacas; read-out: range of MIC): 0.013 to 1.56 µg/mL (≈ 0.0233 to 2.8 µM)
MIC50 (Enterobactercloacas): 0.025 µg/mL (≈ 0.0448 µM)
MIC90 (Enterobactercloacas): 0.049 µg/mL (≈ 0.0879 µM)
MIC50 (Enterococcus II; 20 clinical strains): 0.025 µg/mL (≈ 0.0448 µM)
MIC90 (Enterococcus II; 20 clinical strains): 1.56 µg/mL (≈ 2.8 µM)
MIC (Enterococcus II; [7]): 0.007 to 3.12 µg/mL (≈ 0.0126 to 5.6 µM)
MIC50 (Morganella morganii; 5 clinical strains): 0.013 µg/mL (≈ 0.0233 µM)
MIC90 (Morganella morganii; 5 clinical strains): 0.025 µg/mL (≈ 0.0448 µM)
MIC (Morganella morganii; [8]): 0.013 to 0.025 µg/mL (≈ 0.0233 to 0.0448 µM)
MIC50 (Proteus mirabilis; 4 clinical strains): 0.013 µg/mL (≈ 0.0233 µM)
MIC90 (Proteus mirabilis; 4 clinical strains): 0.049 µg/mL (≈ 0.0879 µM)
MIC (Proteus mirabilis; read-out: range of MIC, 4 clinical strains): 0.007 to 0.049 µg/mL (≈ 0.0126 to 0.0879 µM)
MIC50 (Proteus vulgaris; 5 clinical strains): 0.025 µg/mL (≈ 0.0448 µM)
MIC90 (Proteus vulgaris; 5 clinical strains): 0.098 µg/mL (≈ 0.176 µM)
MIC (Proteus vulgaris; [8]): 0.025 to 0.098 µg/mL (≈ 0.0448 to 0.176 µM)
MIC50 (Pseudomonas II): 1.56 µg/mL (≈ 2.8 µM)
MIC90 (Pseudomonas II): 6.25 µg/mL (≈ 11.2 µM)
MIC (Pseudomonas II; read-out: range of MIC): 0.781 to 12.5 µg/mL (≈ 1.4 to 22.4 µM)
MIC50 (Pseudomonas I): 3.12 µg/mL (≈ 5.6 µM)
MIC90 (Pseudomonas I): 6.25 µg/mL (≈ 11.2 µM)
MIC (Pseudomonas I; read-out: range of MIC): 0.781 to 12.5 µg/mL (≈ 1.4 to 22.4 µM)
MIC50 (Pseudomonas aeruginosa; 20 clinical strains): 3.12 µg/mL (≈ 5.6 µM)
MIC90 (Pseudomonas aeruginosa; 20 clinical strains): 6.25 µg/mL (≈ 11.2 µM)
MIC (Pseudomonas aeruginosa; [7]): 0.781 to 12.5 µg/mL (≈ 1.4 to 22.4 µM)
MIC50 (Serratia spp; 20 clinical strains): 0.025 µg/mL (≈ 0.0448 µM)
MIC90 (Serratia spp; 20 clinical strains): 0.049 µg/mL (≈ 0.0879 µM)
MIC (Serratia spp; [7]): 0.025 to 0.049 µg/mL (≈ 0.0448 to 0.0879 µM)
MIC50 (Streptococcus II; 17 clinical strains): 0.004 µg/mL (≈ 0.00717 µM)
MIC90 (Streptococcus II; 17 clinical strains): 0.007 µg/mL (≈ 0.0126 µM)
MIC (Streptococcus II; read-out: range of MIC, 17 clinical strains): 0.002 to 0.007 µg/mL (≈ 0.00359 to 0.0126 µM)
antibiotic activities against MRSA(Yonsei Univ.), in words (MRSA(Yonsei Univ.)): unexpectedly potent antibiotic activities
range of MIC (MRSA(Yonsei Univ.); 17 clinical strains): 0.013-100.000
MIC50 (MRSA(Yonsei Univ.); [9]): 12.5 µg/mL (≈ 22.4 µM)
MIC90 (MRSA(Yonsei Univ.); [9]): 100 µg/mL (≈ 179 µM)
range of MIC (Streptococcus I): 0.007-25.000
MIC50 (Streptococcus I; Streptococcus, 18 h): 0.025 µg/mL (≈ 0.0448 µM)
MIC90 (Streptococcus I; Streptococcus, 18 h): 12.5 µg/mL (≈ 22.4 µM)
